Measurements: patent US20230002446A1, “ANTI-INFLAMMATORY AGENTS” (The University of Sydney, priority 2019, published 2023)
Where a SMILES comes first, the peptide text is derived from it. [ ]: non-standard residue; d: D form. AEEA = NCCOCCOCC(=O)O

Experiments:
UV13-1 tumour cells = experiment: murine skin tumour model, peptide trialled as vaccine antigen; assay type: in vivo, mice; conditions: 5 nmol sub-cutaneous 21 and 7 days prior to transfer of UV13-1 tumour cells
Experimental: FIG. 1—Peptide administration leads to accelerated skin tumour growth. Mice received sub-cutaneous injections of mixtures containing 5 nmol peptide RP23 (SEQ ID NO:12) (solid line), PBS or liposome controls (dotted line) 21 and 7 days prior to transfer of UV13-1 tumour cells. […] Difference in survival was analysed statistically using a log-rank test.
The inventors initially trialled RP23 (SEQ ID NO: 12) as a vaccine antigen in a murine skin tumour model. […] They then assessed whether RP23 could reduce inflammation in a murine model of contact dermatitis, using a contact hypersensitivity assay (FIG. 2a). […] Using RP23, the inventors carried out a dose-response assay to titrate the immune suppression. Using three doses in the low nanomole range (2, 5 or 10 nmol, about 0.3 0.8, 1.6 mg/kg), a dose-dependent reduction in ear swelling of up to 100% compared to controls was observed (FIG. 3c). […] Further, in a murine model of imiquimod-induced psoriasis (FIG. 4a), a single injection of RP23 reduced local erythema, skin thickness and scaling (FIG. 4b,c).

C57BL/6 mice = experiment: imiquimod-induced psoriasis model; assay type: in vivo
Experimental: FIG. 4—Peptide administration reduces local disease severity in a mouse model of psoriasis. (A) Experimental outline (B) Clinical scores of mice receiving PBS or peptide RP23 (SEQ ID NO:12) injection, compared to daily (0-4 days) topical application of glucocorticoid on the back and ear. (C) Measures of disease local to the peptide RP23 injection site. Redness was measured using an unbiased erythema meter and skin thickness by manual callipers. (D) Spleen weight at day 5 as a measure of systemic immune suppression. […] Data are presented as mean±S.E.M. Statistical significance was determined by ANOVA with Dunnett's multiple comparison test, *p<0.05, **p<0.01, ***p<0.001, ****p<0.0001.
FIG. 10. Therapeutic synergy of RP23 and topical steroid in the murine imiquimod-induced psoriasis model. Aldara cream (5% imiquimod, 57.5 mgs) was applied daily (days 0-4) to the backs of C57BL/6 female mice to induce psoriasis. Clinical scores (PASI), modified psoriasis area and severity index) of mice receiving (A) PBS or RP23 injection at day −1, with or without topical application of glucocorticoid (0.05% betamethasone dipropionate, “BD” 30 mgs) on the back at day 0 (B) PBS or RP23 injection at day 1 and topical application of glucocorticoid at day 1, in comparison to PBS injection only at day −1. Data are the means+/−SEM (n=5). Statistical significance was determined by ANOVA with Dunnett's multiple comparison test to PBS only control, *p<0.05, **p<0.01, ***p<0.001, ****p<0.0001.
The backs of 8-week old female C57BL/6 mice (Australian BioResources) were coarse shaved. A minimum of 24 hours later, 10 nmol RP23 was delivered via sub-cutaneous injection at the lower back in 200 μl phosphate buffered saline (PBS). Groups of mice acting as positive controls for disease development received injection of PBS only. One or seven days later, psoriasis-like inflammation was induced via topical application of 5% imiquimod cream (Aldara, Inova Pharmaceuticals) to the shaved back (57.5 mgs) and one ear (5 mg, divided between dorsal and ventral sides). The contralateral ear served as a negative control for imiquimod-induced inflammation. Imiquimod application was repeated daily for four consecutive days. C57BL/6 mice experience rapid weight loss (up to 20%) upon application of imiquimod cream. Supportive care was provided in the form of dietary supplementation commenced 2 days prior to imiquimod application, and intra-peritoneal injection of 300 μl sterile PBS on days two and three of imiquimod application. Disease progression was monitored for five days, by recording weight loss and grading disease of the back skin using a modified Psoriasis Area and Severity Index (PASI) clinical scoring system, that assessed only disease severity. Additionally, erythema meter (DSM II ColorMeter, Cortex Technology, Denmark) readings were taken at four quadrants on the back skin and skin backfold thickness measurements were recorded using manual callipers. Disease progression of the ear skin was determined by recording ear thickness, measured by manual callipers. As a positive control for immune suppressive therapy, groups of mice received daily topical application of betamethasone dipropionate 0.05% (MSD) cream (30 mgs on the back, 10 mgs on the ear).
Aldara cream (5% imiquimod, 57.5 mgs) was applied daily (days 0-4) to the backs of C57BL/6 female mice to induce psoriasis. Clinical scores (PASI, modified psoriasis area and severity index) of mice receiving prophylactic PBS or RP23 (at day −1), with or without topical application of glucocorticoid (0.05% betamethasone dipropionate, 30 mgs) to the back at day 0, were determined (FIG. 10A).
RP23 and BD therapy were also tested when given synergistically at a therapeutic timepoint (at day 1). Psoriasis was induced as above, but clinical scores were determined daily for 10 days after ceasing imiquimod application at day 5, to record the rate and degree of psoriasis disease resolution (FIG. 10B).

[1] = test system: murine bone marrow derived macrophages; experiment: LPS-stimulated bone marrow derived macrophages, cytokine ELISA; assay type: cell-based; conditions: after LPS-stimulation
Experimental: (§1) FIG. 5—Peptide administration reduces the activation of pro-inflammatory DCs and macrophages. (A) C57BL/6 murine splenocytes were stimulated with LPS±peptide RP23 (SEQ ID NO:12) and expression of activation markers on DCs was assessed by flow cytometry. (B) Bone marrow derived murine macrophages were incubated with peptide RP23 (30 mins) and stimulated with LPS (overnight). Positive controls were stimulated with LPS only. Negative controls were unstimulated. Inflammatory cytokine production was assessed by ELISA. (C) CD14+ cells were isolated from human blood and differentiated into macrophages by culturing with human serum. Cells were incubated with peptide RP23 (30 mins), then stimulated overnight with LPS (left panel) or imiquimod (right panel). Inflammatory cytokine (IL-6 or IL-12/23) production was assessed by ELISA. Representative of 6 donors. Data are presented as mean±S.E.M. Statistical significance was determined by ANOVA with Dunnett's multiple comparison test, *p<0.05, **p<0.01, ***p<0.001.
Using an in vitro culture system, it was determined whether RP23 could suppress the activity of specific pro-inflammatory immune cells. […] The culture of murine bone marrow derived macrophages with RP23 led to reduced IL-6, MCP-1 and TNF release after LPS-stimulation (FIG. 5b). Similarly, primary human blood derived macrophages had reduced IL-6 and IL-12/23 release after stimulation with either LPS or imiquimod (FIG. 5c).

[2] = test system: primary human blood derived macrophages; experiment: LPS- or imiquimod-stimulated human blood derived macrophages, cytokine ELISA; assay type: cell-based; conditions: after stimulation with either LPS or imiquimod
Experimental: as §1
Using an in vitro culture system, it was determined whether RP23 could suppress the activity of specific pro-inflammatory immune cells. […] The culture of murine bone marrow derived macrophages with RP23 led to reduced IL-6, MCP-1 and TNF release after LPS-stimulation (FIG. 5b). […]

mice = experiment: tolerability of injection in mice; assay type: in vivo; conditions: even 10 nmol daily for 6 days sub-cutaneous (data not shown)

For `CSCC[C@H](NC(=O)COCCOCCNC(=O)[C@H](CCCCN)NC(=O)[C@H](CCCCN)NC(=O)[C@H](CCCCN)NC(=O)[C@@H](N)CCCCN)C(=O)N[C@H](C(=O)N1CCC[C@H]1C(=O)NCC(=O)N[C@H](C(=O)N[C@@H](CCC(N)=O)C(=O)N[C@@H](CO)C(=O)N1CCC[C@H]1C(=O)N[C@@H](Cc1ccccc1)C(=O)N[C@@H](Cc1ccccc1)C(=O)N[C@@H](CC(C)C)C(=O)N[C@@H](CC(C)C)C(=O)N[C@@H](CC(C)C)C(=O)N[C@@H](CC(C)C)C(=O)N[C@@H](CC(C)C)C(=O)N[C@H](C(=O)N[C@H](C(=O)N[C@@H](CC(C)C)C(=O)N[C@H](C(=O)N[C@H](C(=O)N[C@H](C(=O)O)C(C)C)C(C)C)[C@@H](C)O)C(C)C)[C@@H](C)O)[C@@H](C)O)[C@@H](C)O` [RP23] (H-KKKK[AEEA]MTPGTQSPFFLLLLLTVLTVV-OH), the skin tumour growth (UV13-1 tumour cells) was “modest increase in tumour growth”, the “survival of tumour-bearing mice” value (UV13-1 tumour cells) was “succumbed to their tumour earlier” and the “disease at a distal site (ear thickness)” value (C57BL/6 mice; injection at lower back, ear measured) was “did not suppress disease at a distal site”. The local erythema (C57BL/6 mice; single injection) was “reduced”, the scaling (C57BL/6 mice; single injection) was “reduced” and the skin thickness (C57BL/6 mice; single injection) was “reduced”. For the same compound, the “systemic immune suppression / locality of effect” value (C57BL/6 mice; spleen weight at day 5, distal ear thickness (FIG. 4d)) was “isolated to the area in which RP23 was delivered”, the IL-6 release [1] was “reduced” and the MCP-1 release [1] was “reduced”. The TNF release [1] was “reduced”, the IL-6 release [2] was “reduced” and the IL-12/23 release [2] was “reduced”. The adverse reactions (mice) was “No adverse reactions of any kind”.
